From EP4151203B1, “RAPESEED MEAL EXTRACT, METHOD FOR PREPARING SAME AND USE IN COSMETICS, IN PARTICULAR AS A PRO-PIGMENTING, SLIMMING AGENT” (Lyster, priority 2021, dated 2023)
Several values for one entry are separate records, joined by “and”; a condition that tells them apart may be missing. Equal entries are not always repeated. Marks after values point to notes of the source that are not given here.

Columns and labels:
[1] = system: adipocytes humains normaux; experiment: Lipolytic activity: NEFA released by adipocytes in suspension; type: cell-based, humain; conditions: for NEFA, Moyenne / NEFA: 2 h; for NEFA, Moyenne: mean of 3, p<0.05 vs control; for NEFA: single replicate
From the text: Les mesures de l'activité lipolytique de plusieurs compositions d'extrait de tourteau de colza à des concentrations différentes ont été effectuées sur des adipocytes humains normaux de tissu cutané adipeux prélevé sur un adulte de 40 ans. Une suspension des adipocytes humains a été incubée pendant 2 H en présence d'une part des compositions d'extrait à tester et d'autre part du produit de référence (contrôle).
Les compositions de concentrations 0,003% (v/v), 0,01% (v/v), et 0,03% (v/v) d'extrait de tourteau de colza ont été préparées par dilution de la solution 50/50 dans le milieu d'incubation.
À la fin de la période d'incubation, la quantité de NEFA libérés dans le milieu d'incubation a été déterminée à l'aide d'un kit de mesure spectro-colométrique spécifique et sensible.
Le niveau de signification entre le "contrôle" et le "produit de référence" a été évalué à l'aide d'un test t de Student (* : p<0,05).
Le niveau de signification entre le le "contrôle" et chaque "composé testé" a été évalué indépendamment pour chaque composition par une analyse de variance à un facteur (ANOVA à sens unique) suivie d'un test de Holm-Sidak (* : p<0,05).

[2] = system: mélanocytes humains normaux; experiment: Propigmenting activity: melanin production by melanocytes (optical density at 405 nm); type: cell-based, humain; conditions: 250 µM
Procedure: Les mesures de l'activité propigmentante (augmentation de la production de mélanine) de plusieurs compositions de l'extrait de tourteau de colza présentant des concentrations différentes ont été effectuée par dosage des mélanocytes humains normaux in vitro.
Les compositions de concentrations 0,03% (v/v), 0,1% (v/v), et 0,3% (v/v) ont été préparées par dilution de la solution 50/50 dans le milieu d'incubation.
Les cultures des mélanocytes normaux d'épiderme humain ont été cultivés en culture monocouche jusqu'à confluence. Puis les mélanocytes ont été incubés pendant 72 heures soit en l'absence de l'extrait à tester (contrôle) soit en présence des différentes compositions de l'extrait à tester. Le produit de référence pour l'inhibition de la synthèse de mélanine était une solution d'acide kojique à 250 µM.
Les quantités de mélanine produite par les mélanocytes ont été déterminées par une méthode spectrophotométrique c'est-à-dire une mesure de densité optique à 405 nm effectuée au moyen d'un spectrophotomètre « Genesys 150 » de la société ThermoFisher Scientific.
Le tableau 7 présente la quantité de mélanine (µg) produite par mg de protéines totales dans le lysat cellulaire monocouche.
Le niveau de signification entre le "contrôle" et la « référence » a été évalué à l'aide d'un test t de Student (* : p<0,05). [Tableau 7]

Cn1c(=O)c2c(ncn2C)n(C)c1=O [Caféine, caféine]
NEFA, Moyenne ([1]; 10^-3 mol/L): 47.9* µM | NEFA ([1]; 10^-3 mol/L): 41.5 µM and 50.3 µM and 51.9 µM | augmente la lipolyse des adipocytes ([1]; 10^-3 mol/L, increase vs control, p<0.05): 41.1% | NEFA, Moyenne ([1]; 10^-4 mol/L): 37.7* µM | NEFA ([1]; 10^-4 mol/L): 37.1 µM and 38.8 µM and 37.2 µM

O=c1cc(CO)occ1O [acide kojique]
mélanine, % du contrôle ([2]; 72 h): 52.4% | µg mélanine/mg de protéines, Moyenne ([2]; 72 h, mean of 3, p<0.01 vs control): 35.8** µg mélanine/mg de protéines | µg mélanine/mg de protéines ([2]; 72 h, single replicate): 45.1 µg mélanine/mg de protéines and 30.3 µg mélanine/mg de protéines and 32.0 µg mélanine/mg de protéines | inhibe la production de mélanine ([2]; inhibition vs control, significant): 47,6%
